Laboratory results reported in patent US9084828B2, “Oligomer-protein tyrosine kinase inhibitor conjugates” (Nektar Therapeutics, priority 2009, dated 2015).

How the values were obtained:
Assay type in all cases: biochemical
PKG1-beta = biological target: T1, PKG1-beta (Homo sapiens, UniProt Q13976); experiment: Activity against various protein tyrosine kinases: PKG1-beta
T1 sequence (Q13976 1-686 isoform Q13976-2): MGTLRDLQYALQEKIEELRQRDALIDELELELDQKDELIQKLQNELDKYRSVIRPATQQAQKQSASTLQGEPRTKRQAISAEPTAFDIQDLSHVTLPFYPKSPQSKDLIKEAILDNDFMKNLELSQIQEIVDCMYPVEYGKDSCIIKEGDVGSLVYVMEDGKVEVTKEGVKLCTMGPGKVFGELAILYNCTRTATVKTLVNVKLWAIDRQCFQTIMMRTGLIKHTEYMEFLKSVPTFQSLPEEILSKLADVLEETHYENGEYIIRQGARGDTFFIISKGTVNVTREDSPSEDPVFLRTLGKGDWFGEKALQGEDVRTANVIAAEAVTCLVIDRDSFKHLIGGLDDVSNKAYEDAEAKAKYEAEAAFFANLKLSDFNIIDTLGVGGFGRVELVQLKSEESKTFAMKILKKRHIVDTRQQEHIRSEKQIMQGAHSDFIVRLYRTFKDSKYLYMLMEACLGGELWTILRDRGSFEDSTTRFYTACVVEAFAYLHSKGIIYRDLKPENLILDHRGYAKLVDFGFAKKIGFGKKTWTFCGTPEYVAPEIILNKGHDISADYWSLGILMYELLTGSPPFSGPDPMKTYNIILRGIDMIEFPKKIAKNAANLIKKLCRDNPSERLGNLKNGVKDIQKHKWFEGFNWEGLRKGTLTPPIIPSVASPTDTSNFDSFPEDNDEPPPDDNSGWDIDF

AurA = biological target: T2, AurA (Homo sapiens, UniProt O14965); experiment: Activity against various protein tyrosine kinases: AurA
T2 sequence (O14965 1-403): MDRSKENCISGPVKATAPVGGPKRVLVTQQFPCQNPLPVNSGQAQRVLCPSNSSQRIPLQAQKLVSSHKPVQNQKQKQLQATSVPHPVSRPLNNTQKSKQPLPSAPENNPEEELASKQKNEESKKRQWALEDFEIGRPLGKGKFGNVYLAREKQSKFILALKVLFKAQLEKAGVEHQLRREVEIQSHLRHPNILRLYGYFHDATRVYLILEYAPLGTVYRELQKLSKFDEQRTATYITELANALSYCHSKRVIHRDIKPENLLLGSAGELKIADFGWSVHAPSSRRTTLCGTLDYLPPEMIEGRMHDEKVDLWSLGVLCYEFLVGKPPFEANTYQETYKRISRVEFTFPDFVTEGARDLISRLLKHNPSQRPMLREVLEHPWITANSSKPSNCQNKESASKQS

CK1d = CK1d (Homo sapiens, UniProt P48730); experiment: Activity against various protein tyrosine kinases: CK1d
IKK-beta = biological target: T3, IKK-beta (Homo sapiens, UniProt O14920); experiment: Activity against various protein tyrosine kinases: IKK-beta
T3 sequence (O14920 1-756): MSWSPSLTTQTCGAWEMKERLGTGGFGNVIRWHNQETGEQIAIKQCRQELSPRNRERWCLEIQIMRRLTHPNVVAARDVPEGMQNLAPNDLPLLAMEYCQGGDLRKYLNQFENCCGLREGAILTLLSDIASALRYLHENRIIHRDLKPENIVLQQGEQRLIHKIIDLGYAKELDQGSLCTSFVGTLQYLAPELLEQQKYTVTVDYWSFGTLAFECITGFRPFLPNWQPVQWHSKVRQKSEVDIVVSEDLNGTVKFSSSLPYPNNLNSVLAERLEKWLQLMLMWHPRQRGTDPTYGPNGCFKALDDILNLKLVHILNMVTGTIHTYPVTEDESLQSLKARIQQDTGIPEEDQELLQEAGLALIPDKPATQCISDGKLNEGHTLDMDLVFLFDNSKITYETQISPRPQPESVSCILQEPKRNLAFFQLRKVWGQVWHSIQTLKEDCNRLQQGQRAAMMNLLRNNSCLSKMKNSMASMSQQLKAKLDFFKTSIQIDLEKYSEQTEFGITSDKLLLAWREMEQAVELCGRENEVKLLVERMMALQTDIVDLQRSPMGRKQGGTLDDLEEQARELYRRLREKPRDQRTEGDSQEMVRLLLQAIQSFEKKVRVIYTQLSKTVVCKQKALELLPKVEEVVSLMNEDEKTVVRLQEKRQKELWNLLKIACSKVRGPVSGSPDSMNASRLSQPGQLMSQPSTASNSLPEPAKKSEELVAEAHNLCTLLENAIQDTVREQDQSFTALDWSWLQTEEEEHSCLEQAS

TSSK2 = biological target: T4, TSSK2 (Homo sapiens, UniProt Q96PF2); experiment: Activity against various protein tyrosine kinases: TSSK2
T4 sequence (Q96PF2 1-358): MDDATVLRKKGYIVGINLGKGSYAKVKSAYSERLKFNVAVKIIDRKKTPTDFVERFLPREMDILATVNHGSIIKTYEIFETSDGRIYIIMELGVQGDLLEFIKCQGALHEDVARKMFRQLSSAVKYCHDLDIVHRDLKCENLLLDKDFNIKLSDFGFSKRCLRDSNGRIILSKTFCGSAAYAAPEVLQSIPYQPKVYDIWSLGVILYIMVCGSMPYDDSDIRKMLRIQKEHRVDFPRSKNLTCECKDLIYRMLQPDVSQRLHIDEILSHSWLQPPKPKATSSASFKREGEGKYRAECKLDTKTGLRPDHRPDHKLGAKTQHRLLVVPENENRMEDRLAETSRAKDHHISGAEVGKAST

BTK = BTK (Homo sapiens, UniProt Q06187); experiment: Activity against various protein tyrosine kinases: BTK
Method: Using techniques know those of ordinary skill in the art, compounds were tested for activity against various protein tyrosine kinases.

EGFR = EGFR (Homo sapiens, UniProt P00533); experiment: Activity against various protein tyrosine kinases: EGFR
PDGFR_beta = PDGFR_beta (Homo sapiens, UniProt P09619); experiment: Activity against various protein tyrosine kinases: PDGFR_beta
FGFR2(N549H) = FGFR2(N549H) (Homo sapiens, UniProt P21802, N549H); experiment: Activity against various protein tyrosine kinases: FGFR2(N549H)
Chain of FGFR2(N549H) (P21802 22-821 N549H, species assumed): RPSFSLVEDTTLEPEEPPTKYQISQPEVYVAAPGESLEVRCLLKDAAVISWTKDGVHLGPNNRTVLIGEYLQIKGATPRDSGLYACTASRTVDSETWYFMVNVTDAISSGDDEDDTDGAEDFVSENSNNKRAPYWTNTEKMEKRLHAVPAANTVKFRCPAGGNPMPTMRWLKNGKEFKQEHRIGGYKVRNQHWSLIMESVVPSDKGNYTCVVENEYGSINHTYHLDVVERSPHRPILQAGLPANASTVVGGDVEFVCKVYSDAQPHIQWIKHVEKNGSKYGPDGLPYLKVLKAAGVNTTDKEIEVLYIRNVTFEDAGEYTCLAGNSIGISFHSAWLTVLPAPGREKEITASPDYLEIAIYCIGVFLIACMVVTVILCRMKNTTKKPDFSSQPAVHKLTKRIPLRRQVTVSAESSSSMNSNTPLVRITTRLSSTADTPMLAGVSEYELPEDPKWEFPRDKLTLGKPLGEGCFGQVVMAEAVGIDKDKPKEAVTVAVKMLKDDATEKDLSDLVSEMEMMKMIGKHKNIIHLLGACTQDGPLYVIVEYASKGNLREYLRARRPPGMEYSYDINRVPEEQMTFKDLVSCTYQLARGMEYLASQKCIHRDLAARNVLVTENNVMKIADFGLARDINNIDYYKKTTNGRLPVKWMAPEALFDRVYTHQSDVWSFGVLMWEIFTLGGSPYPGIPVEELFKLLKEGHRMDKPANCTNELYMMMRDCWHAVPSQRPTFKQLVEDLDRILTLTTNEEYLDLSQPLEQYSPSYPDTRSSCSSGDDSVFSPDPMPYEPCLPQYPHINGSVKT

Chain of PDGFR_beta (P09619 33-1106, species assumed): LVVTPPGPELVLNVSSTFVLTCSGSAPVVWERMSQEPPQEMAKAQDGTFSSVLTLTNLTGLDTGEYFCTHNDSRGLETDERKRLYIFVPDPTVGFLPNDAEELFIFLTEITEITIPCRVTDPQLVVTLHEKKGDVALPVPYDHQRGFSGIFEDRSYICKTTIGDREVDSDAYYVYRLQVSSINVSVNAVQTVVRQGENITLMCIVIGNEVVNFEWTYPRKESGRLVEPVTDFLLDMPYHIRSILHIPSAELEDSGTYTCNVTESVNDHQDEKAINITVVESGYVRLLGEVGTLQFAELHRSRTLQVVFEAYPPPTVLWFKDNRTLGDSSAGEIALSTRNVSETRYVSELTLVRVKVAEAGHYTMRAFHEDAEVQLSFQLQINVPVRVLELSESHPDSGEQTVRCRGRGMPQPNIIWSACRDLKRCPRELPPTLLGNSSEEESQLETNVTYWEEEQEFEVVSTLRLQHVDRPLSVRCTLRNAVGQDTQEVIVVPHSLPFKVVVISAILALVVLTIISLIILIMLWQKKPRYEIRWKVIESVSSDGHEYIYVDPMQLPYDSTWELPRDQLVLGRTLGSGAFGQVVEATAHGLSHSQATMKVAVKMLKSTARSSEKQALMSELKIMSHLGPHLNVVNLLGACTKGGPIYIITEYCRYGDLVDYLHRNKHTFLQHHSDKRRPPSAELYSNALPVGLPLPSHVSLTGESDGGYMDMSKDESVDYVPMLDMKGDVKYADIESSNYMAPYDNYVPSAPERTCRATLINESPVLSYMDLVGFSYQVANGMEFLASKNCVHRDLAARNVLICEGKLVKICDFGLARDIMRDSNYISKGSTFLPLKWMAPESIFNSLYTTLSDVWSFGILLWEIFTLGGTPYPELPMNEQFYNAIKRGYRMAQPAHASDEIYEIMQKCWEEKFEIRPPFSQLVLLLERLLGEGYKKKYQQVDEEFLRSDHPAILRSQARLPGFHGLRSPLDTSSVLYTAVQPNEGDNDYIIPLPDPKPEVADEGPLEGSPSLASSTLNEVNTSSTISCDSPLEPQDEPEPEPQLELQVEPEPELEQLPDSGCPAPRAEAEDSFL
Chain of CK1d (P48730 whole entry): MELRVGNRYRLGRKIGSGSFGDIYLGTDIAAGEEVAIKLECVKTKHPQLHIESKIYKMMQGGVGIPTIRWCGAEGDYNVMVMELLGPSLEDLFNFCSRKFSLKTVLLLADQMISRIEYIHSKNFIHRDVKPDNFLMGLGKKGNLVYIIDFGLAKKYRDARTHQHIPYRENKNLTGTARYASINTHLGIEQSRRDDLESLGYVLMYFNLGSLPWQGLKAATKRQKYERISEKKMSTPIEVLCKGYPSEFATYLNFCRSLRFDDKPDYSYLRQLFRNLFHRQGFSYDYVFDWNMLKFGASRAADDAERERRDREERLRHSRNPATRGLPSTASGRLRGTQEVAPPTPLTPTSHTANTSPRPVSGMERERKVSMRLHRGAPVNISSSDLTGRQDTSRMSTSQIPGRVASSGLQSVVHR
Chain of BTK (Q06187 whole entry, species assumed): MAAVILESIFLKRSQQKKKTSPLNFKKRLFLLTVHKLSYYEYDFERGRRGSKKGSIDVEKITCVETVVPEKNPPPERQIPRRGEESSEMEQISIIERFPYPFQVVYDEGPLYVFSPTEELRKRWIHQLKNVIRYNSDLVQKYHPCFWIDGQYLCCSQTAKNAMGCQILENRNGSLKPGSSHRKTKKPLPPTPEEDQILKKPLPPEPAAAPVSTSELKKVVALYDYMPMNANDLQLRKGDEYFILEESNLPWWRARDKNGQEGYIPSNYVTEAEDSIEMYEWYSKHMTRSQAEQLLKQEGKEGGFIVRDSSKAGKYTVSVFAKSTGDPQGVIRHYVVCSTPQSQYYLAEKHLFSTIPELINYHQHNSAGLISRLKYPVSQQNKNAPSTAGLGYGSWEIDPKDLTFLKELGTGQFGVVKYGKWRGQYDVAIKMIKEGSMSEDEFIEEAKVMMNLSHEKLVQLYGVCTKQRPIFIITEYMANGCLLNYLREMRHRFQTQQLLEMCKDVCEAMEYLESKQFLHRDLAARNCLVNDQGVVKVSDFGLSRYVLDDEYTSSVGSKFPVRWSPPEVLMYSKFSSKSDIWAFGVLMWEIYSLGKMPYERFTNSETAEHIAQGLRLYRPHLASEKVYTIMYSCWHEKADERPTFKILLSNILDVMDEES
Chain of EGFR (P00533 25-1210, species assumed): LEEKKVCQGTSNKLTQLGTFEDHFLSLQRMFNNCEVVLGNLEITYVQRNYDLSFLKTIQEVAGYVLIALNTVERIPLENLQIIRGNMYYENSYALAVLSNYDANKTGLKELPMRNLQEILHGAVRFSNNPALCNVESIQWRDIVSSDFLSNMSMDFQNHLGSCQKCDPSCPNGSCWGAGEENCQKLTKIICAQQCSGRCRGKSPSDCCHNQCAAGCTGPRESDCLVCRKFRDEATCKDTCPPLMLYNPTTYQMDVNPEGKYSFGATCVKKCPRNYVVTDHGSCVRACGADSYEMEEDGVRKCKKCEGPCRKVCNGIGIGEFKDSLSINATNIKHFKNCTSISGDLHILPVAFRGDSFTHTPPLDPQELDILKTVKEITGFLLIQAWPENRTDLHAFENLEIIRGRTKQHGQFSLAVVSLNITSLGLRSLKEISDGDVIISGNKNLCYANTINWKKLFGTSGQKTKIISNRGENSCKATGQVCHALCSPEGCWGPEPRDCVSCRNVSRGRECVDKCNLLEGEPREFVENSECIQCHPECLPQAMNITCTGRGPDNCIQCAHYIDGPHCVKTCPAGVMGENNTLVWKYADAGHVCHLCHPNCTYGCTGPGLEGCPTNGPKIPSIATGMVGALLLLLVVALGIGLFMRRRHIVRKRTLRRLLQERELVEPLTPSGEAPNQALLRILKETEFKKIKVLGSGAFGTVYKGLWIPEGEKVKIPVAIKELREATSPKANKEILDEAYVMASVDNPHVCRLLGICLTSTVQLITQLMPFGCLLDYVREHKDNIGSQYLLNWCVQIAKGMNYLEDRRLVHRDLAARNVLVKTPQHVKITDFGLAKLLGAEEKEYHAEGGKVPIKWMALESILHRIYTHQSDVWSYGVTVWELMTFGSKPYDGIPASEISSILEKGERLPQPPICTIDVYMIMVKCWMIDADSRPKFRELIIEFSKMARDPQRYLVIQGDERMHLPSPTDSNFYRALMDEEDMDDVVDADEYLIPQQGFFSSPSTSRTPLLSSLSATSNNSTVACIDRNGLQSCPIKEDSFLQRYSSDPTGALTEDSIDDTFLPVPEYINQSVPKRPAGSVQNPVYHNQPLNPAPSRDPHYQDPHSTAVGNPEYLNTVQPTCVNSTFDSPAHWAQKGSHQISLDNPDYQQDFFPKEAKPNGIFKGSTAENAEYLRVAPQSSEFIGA

For `COCCOCCOCCNC(=O)OCCN1CCN(c2cc(Nc3ncc(C(=O)Nc4c(C)cccc4Cl)s3)nc(C)n2)CC1` [mPEG3-NHCOO-Dasatinib], the “% Inhibition at 10 nM” value (PKG1-beta) was −2%, the “% Inhibition at 1 μM” value (PKG1-beta) was 0% and the “% Inhibition at 10 nM” value (AurA) was −7%. For the same compound, the “% Inhibition at 1 μM” value (AurA) was 19%, the “% Inhibition at 10 nM” value (CK1d) was 1% and the “% Inhibition at 1 μM” value (CK1d) was 3%. The “% Inhibition at 10 nM” value (IKK-beta) was 0%, the “% Inhibition at 1 μM” value (IKK-beta) was 1% and the “% Inhibition at 10 nM” value (TSSK2) was −1%. For the same compound, the “% Inhibition at 1 μM” value (TSSK2) was 0%, the “% Inhibition at 10 nM” value (BTK) was 99% and the “% Inhibition at 1 μM” value (BTK) was 100%. For the same compound, the “% Inhibition at 10 nM” value (EGFR) was 3%, the “% Inhibition at 1 μM” value (EGFR) was 76% and the “% Inhibition at 10 nM” value (PDGFR_beta) was 48%. The “% Inhibition at 1 μM” value (PDGFR_beta) was 99%, the “% Inhibition at 10 nM” value (FGFR2(N549H)) was 7% and the “% Inhibition at 1 μM” value (FGFR2(N549H)) was 75%.
For `COCCOCCOCCOCCOCCOCCOCCNC(=O)OCCN1CCN(c2cc(Nc3ncc(C(=O)Nc4c(C)cccc4Cl)s3)nc(C)n2)CC1` [mPEG7-NHCOO-Dasatinib], the “% Inhibition at 10 nM” value (PKG1-beta) was −3%, the “% Inhibition at 1 μM” value (PKG1-beta) was −3% and the “% Inhibition at 10 nM” value (AurA) was 3%. For the same compound, the “% Inhibition at 1 μM” value (AurA) was 28%, the “% Inhibition at 10 nM” value (CK1d) was 0% and the “% Inhibition at 1 μM” value (CK1d) was 9%. The “% Inhibition at 10 nM” value (IKK-beta) was 2%, the “% Inhibition at 1 μM” value (IKK-beta) was 2% and the “% Inhibition at 10 nM” value (TSSK2) was 3%. For the same compound, the “% Inhibition at 1 μM” value (TSSK2) was −2%, the “% Inhibition at 10 nM” value (BTK) was 99% and the “% Inhibition at 1 μM” value (BTK) was 100%. The “% Inhibition at 10 nM” value (EGFR) was 6%, the “% Inhibition at 1 μM” value (EGFR) was 62% and the “% Inhibition at 10 nM” value (PDGFR_beta) was 60%. The “% Inhibition at 1 μM” value (PDGFR_beta) was 100%, the “% Inhibition at 10 nM” value (FGFR2(N549H)) was 5% and the “% Inhibition at 1 μM” value (FGFR2(N549H)) was 63%.
